In patent US10471046B2, “Method for treating, preventing, or reducing the risk of skin infection” (Melinta Subsidiary Corp., priority 2014, dated 2019):
≈ marks a conversion by molar mass, not a printed value.

Tested on: S. aureus
Assay: Minimum inhibitory concentrations (MICs) for S. aureus of exemplary compounds (Table 2)
Format: cell-based
Settings: Staphylococcus aureus, minimum inhibitory concentrations for S. aureus; read-out: MICs
Outline: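 Growth of S. aureus in media with or without compound, by broth microdilution in microtiter trays following NCCLS M7-A5 guidelines. Values are MICs in μg/mL.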

| SMILES | MIC [µg/mL] |
| --- | --- |
| CC(=O)NC[C@H]1CN(c2ccc(-c3ccc(CNS(=O)(=O)c4ccc(N5CCOCC5)nc4)cc3)c(F)c2)C(=O)O1 [Compound 2044, N-(3-{2-Fluoro-4′-[(6-morpholin-4-yl-pyridine-3-sulfonylamino)-methyl]-biphenyl-4-yl}-2-oxo-oxazolidin-5-(S)-ylmethyl)-acetamide] | 128 (≈ 219 µM) |
| CO/N=C(\CNCc1cocn1)c1ccc(-c2ccc(N3C[C@H](CNC(C)=O)OC3=O)cc2F)cc1 [Compound 4255, N-[3-(2-Fluoro-4′-{1-methoxyimino-2-[(oxazol-4-ylmethyl)-amino]-ethyl}-biphenyl-4-yl)-2-oxo-oxazolidin-5-(S)-ylmethyl]-acetamide] | 2 (≈ 4.04 µM) |
| CC(=O)NC[C@H]1CN(c2ccc(-c3ccc([C@H](CO)N4CCC4)cc3)c(F)c2)C(=O)O1 [Compound 1063, N-{3-[4′-(1-(R)-Azetidin-1-yl-2-hydroxy-ethyl)-2-fluoro-biphenyl-4-yl]-2-oxo-oxazolidin-5-(S)-ylmethyl}-acetamide] | 8 (≈ 18.7 µM) |
| CC(=O)NC[C@H]1CN(c2ccc(-c3ccc(C(=O)NCc4ncon4)cc3)c(F)c2)C(=O)O1 [Compound 4224, 4′-[5-(S)-(Acetylamino-methyl)-2-oxo-oxazolidin-3-yl]-2′-fluoro-biphenyl-4-carboxylic acid ([1,2,4]oxadiazol-3-ylmethyl)-amide] | 0.5 (≈ 1.1 µM) |
| CC(=O)NC[C@H]1CN(c2ccc(-c3ccc(C(O)Cc4nnn[nH]4)cc3)c(F)c2)C(=O)O1 (stereo in doubt) [Compound 1060, N-(3-{2-Fluoro-4′-[1-(R)-hydroxy-2-(1H-tetrazol-5-yl)-ethyl]-biphenyl-4-yl}-2-oxo-oxazolidin-5-(S)-ylmethyl)-acetamide] | 64 (≈ 145 µM) |
| COc1nc(C)c(/C=C/C(=O)NCc2ccc(-c3ccc(N4C[C@H](CNC(C)=O)OC4=O)cc3F)cc2)c(O)n1 [Compound 4004, N-{4′-[5-(S)-(Acetylamino-methyl)-2-oxo-oxazolidin-3-yl]-2′-fluoro-biphenyl-4-ylmethyl}-3-(4-hydroxy-2-methoxy-6-methyl-pyrimidin-5-yl)-acrylamide] | 2 (≈ 3.64 µM) |
| CC(=O)NC[C@H]1CN(c2ccc(-c3ccc(CNC(=O)[C@H](Cc4ccccn4)NC(=O)OC(C)(C)C)cc3)c(F)c2)C(=O)O1 [Compound 4303, [1-(S)-({4′-[5-(S)-(Acetylamino-methyl)-2-oxo-oxazolidin-3-yl]-2′-fluoro-biphenyl-4-ylmethyl}-carbamoyl)-2-pyridin-2-yl-ethyl]-carbamic acid tert-butyl ester] | 8 (≈ 13.2 µM) |
| CC(=O)NC[C@H]1CN(c2ccc(-c3ccc(CNCc4ccco4)c(F)c3F)c(F)c2)C(=O)O1 [Compound 4088, N-[2-Oxo-3-(2,2′,3′-trifluoro-4′-{[(furan-2-ylmethyl)-amino]-methyl}-biphenyl-4-yl)-oxazolidin-5-(S)-ylmethyl]-acetamide] | 2 (≈ 4.22 µM) |
| CCOC(=O)c1c(CNCc2ccc(-c3ccc(N4C[C@H](CNC(C)=O)OC4=O)cc3F)cc2)c(C)n(C2CC2)c1C [Compound 4157, 4-[({4′-[5-(S)-(Acetylamino-methyl)-2-oxo-oxazolidin-3-yl]-2′-fluoro-biphenyl-4-ylmethyl}-amino)-methyl]-1-cyclopropyl-2,5-dimethyl-1H-pyrrole-3-carboxylic acid ethyl ester] | 8 (≈ 13.9 µM) |
| CC(=O)NC[C@H]1CN(c2ccc(-c3ccc(CNS(=O)(=O)c4cccc5cccnc45)cc3)c(F)c2)C(=O)O1 [Compound 2051, N-(3-{2-Fluoro-4′-[(quinoline-8-sulfonylamino)-methyl]-biphenyl-4-yl}-2-oxo-oxazolidin-5-(S)-ylmethyl)-acetamide] | 4 (≈ 7.29 µM) |
| CC(=O)NC[C@H]1CN(c2ccc(-c3ccc([C@@H](NCc4ccccn4)C(N)=O)cc3)c(F)c2)C(=O)O1 [Compound 4185] | 16 (≈ 32.6 µM) |
| CC(=O)NC[C@H]1CN(c2ccc(-c3ccc(Cn4ccnn4)nc3)c(F)c2)C(=O)O1 [Compound 1036, N-{3-[3-Fluoro-4-(6-[1,2,3]triazol-1-ylmethyl-pyridin-3-yl)-phenyl]-2-oxo-oxazolidin-5-(S)-ylmethyl}-acetamide] | 1 (≈ 2.44 µM) |
| CC(=O)NC[C@H]1CN(c2ccc(-c3ccc(CNc4nc[nH]c4C(N)=O)cc3)c(F)c2)C(=O)O1 [Compound 2055, 5-({4′-[5-(S)-(Acetylamino-methyl)-2-oxo-oxazolidin-3-yl]-2′-fluoro-biphenyl-4-ylmethyl}-amino)-3H-imidazole-4-carboxylic acid amide] | 4 (≈ 8.57 µM) |

Other lines, results leading:

| MIC [µg/mL] | SMILES |
| --- | --- |
| 0.25 (≈ 0.609 µM) | CC(=O)NC[C@H]1CN(c2ccc(-c3ccc(Cn4cnnn4)cc3)c(F)c2)C(=O)O1 [Compound 1047, N-[3-(2-Fluoro-4′-tetrazol-1-ylmethyl-biphenyl-4-yl)-2-oxo-oxazolidin-5-(S)-ylmethyl]-acetamide] |
| 0.5 (≈ 1.12 µM) | CC(=O)NC[C@H]1CN(c2ccc(-c3ccc(Cn4nnnc4Cl)cc3)c(F)c2)C(=O)O1 [Compound 1083, N-{3-[4′-(5-Chloro-tetrazol-1-ylmethyl)-2-fluoro-biphenyl-4-yl]-2-oxo-oxazolidin-5-(S)-ylmethyl}-acetamide] |
| 4 (≈ 8.01 µM) | CC(=O)NC[C@H]1CN(c2ccc(-c3ccc(S(=O)(=O)Cc4cc[n+]([O-])cc4)cc3)c(F)c2)C(=O)O1 [Compound 3004, N-{3-[2-Fluoro-4′-(1-oxy-pyridin-4-ylmethanesulfonyl)-biphenyl-4-yl]-2-oxo-oxazolidin-5-(S)-ylmethyl}-acetamide] |
| 1 (≈ 2.16 µM) | CC(=O)NC[C@H]1CN(c2ccc(-c3ccc(C(=O)NCc4ccncc4)nc3)c(F)c2)C(=O)O1 [Compound 4188, 5-{4-[5-(S)-(Acetylamino-methyl)-2-oxo-oxazolidin-3-yl]-2-fluoro-phenyl}-pyridine-2-carboxylic acid (pyridin-4-ylmethyl)-amide] |
| 1 (≈ 2.13 µM) | CC(=O)NC[C@H]1CN(c2ccc(-c3ccc(CNc4nc(CN)ns4)cc3)c(F)c2)C(=O)O1 [Compound 2012, N-(3-{4′-[(3-Aminomethyl-[1,2,4]thiadiazol-5-ylamino)-methyl]-2-fluoro-biphenyl-4-yl}-2-oxo-oxazolidin-5-(S)-ylmethyl)-acetamide] |
| 8 (≈ 16.2 µM) | COc1cc(CN(C)Cc2ccncc2)ccc1-c1ccc(N2C[C@H](CNC(C)=O)OC2=O)cc1F [Compound 4033, N-(3-{2-Fluoro-2′-methoxy-4′-[(methyl-pyridm-4-ylmethyl-amino)-methyl]-biphenyl-4-yl}-2-oxo-oxazolidin-5-(S)-ylmethyl)-acetamide] |
| 4 (≈ 8.14 µM) | CC(=O)NC[C@H]1CN(c2ccc(-c3ccc(CNC(C(N)=O)c4cccnc4)cc3)c(F)c2)C(=O)O1 (stereo partly drawn) [Compound 4293, 2-({4′-[5-(S)-(Acetylamino-methyl)-2-oxo-oxazolidin-3-yl]-2′-fluoro-biphenyl-4-ylmethyl}-amino)-2-pyridin-3-yl-acetamide] |
| 16 (≈ 31.2 µM) | CC(=O)NC[C@H]1CN(c2ccc(-c3ccc(CNCc4c[nH]c(-c5ccccc5)n4)cc3)c(F)c2)C(=O)O1 [Compound 4123, N-[3-(2-Fluoro-4′-{[(2-phenyl-1H-imidazol-4-ylmethyl)-amino]-methyl}-biphenyl-4-yl)-2-oxo-oxazolidin-5-(S)-ylmethyl]-acetamide] |
| 4 (≈ 8.19 µM) | CC(=O)NC[C@H]1CN(c2ccc(-c3ccc(CNC(=O)/C=C/c4cccnc4)cc3)c(F)c2)C(=O)O1 [Compound 4002, N-{4′-[5-(S)-(Acetylamino-methyl)-2-oxo-oxazolidin-3-yl]-2′-fluoro-biphenyl-4-ylmethyl}-3-pyridin-3-yl-acrylamide] |
| 0.5 (≈ 1.05 µM) | CC(=O)NC[C@H]1CN(c2ccc(-c3ccc(C(=O)NCCc4ccccn4)cc3)c(F)c2)C(=O)O1 [Compound 4115, 4′-[5-(S)-(Acetylamino-methyl)-2-oxo-oxazolidin-3-yl]-2′-fluoro-biphenyl-4-carboxylic acid (2-pyridin-2-yl-ethyl)-amide] |
| 1 (≈ 2.23 µM) | CC(=O)NC[C@H]1CN(c2ccc(-c3ccc(/C=N/Nc4ccccn4)cc3)c(F)c2)C(=O)O1 [Compound 2041, N-{3-[2-Fluoro-4′-(pyridin-2-yl-hydrazonomethyl)-biphenyl-4-yl]-2-oxo-oxazolidin-5-(S)-ylmethyl}-acetamide] |
| 4 (≈ 8.36 µM) | CC(=O)NC[C@H]1CN(c2ccc(-c3ccc([C@H](CO)NCc4ccncc4)cc3)c(F)c2)C(=O)O1 [Compound 4202, N-[3-(2-Fluoro-4′-{2-hydroxy-1-(R)-[(pyridin-4-ylmethyl)-amino]-ethyl}-biphenyl-4-yl)-2-oxo-oxazolidin-5-(S)-ylmethyl]-acetamide] |
| 2 (≈ 4.01 µM) | CC(=O)NC[C@H]1CN(c2ccc(-c3ccc(CNCc4cncc5ccccc45)cc3)c(F)c2)C(=O)O1 [Compound 4060, N-[3-(2-Fluoro-4′-{[(isoquinolin-4-ylmethyl)-amino]-methyl}-biphenyl-4-yl)-2-oxo-oxazolidin-5-(S)-ylmethyl]-acetamide] |
| 0.25 (≈ 0.529 µM) | CC(=O)NC[C@H]1CN(c2ccc(-c3ccc(C[S+]([O-])c4nnnn4C)cc3)c(F)c2)C(=O)O1 (stereo partly drawn) [Compound 2020, N-{3-[2-Fluoro-4′-(1-methyl-1H-tetrazole-5-sulfinylmethyl)-biphenyl-4-yl]-2-oxo-oxazolidin-5-(S)-ylmethyl}-acetamide] |
| 1 (≈ 2.16 µM) | CC(=O)NC[C@H]1CN(c2ccc(-c3ccc(CN(C)Cc4ccncc4)cc3)c(F)c2)C(=O)O1 [Compound 4044, N-(3-{2-Fluoro-4′-[(methyl-pyridin-4-ylmethyl-amino)-methyl]-biphenyl-4-yl}-2-oxo-oxazolidin-5-(S)-ylmethyl)-acetamide] |
| 0.5 (≈ 1.06 µM) | CCSc1nnn(Cc2ccc(-c3ccc(N4C[C@H](CNC(C)=O)OC4=O)cc3F)cc2)n1 [Compound 1082, N-{3-[4′-(5-Ethylsulfanyl-tetrazol-2-ylmethyl)-2-fluoro-biphenyl-4-yl]-2-oxo-oxazolidin-5-(S)-ylmethyl}-acetamide] |
| 0.5 (≈ 1.1 µM) | CC(=O)NC[C@H]1CN(c2ccc(-c3ccc(CNCc4cccs4)cc3)c(F)c2)C(=O)O1 [Compound 4137, N-[3-(2-Fluoro-4′-{[(thiophen-2-ylmethyl)-amino]-methyl}-biphenyl-4-yl)-2-oxo-oxazolidin-5-(S)-ylmethyl]-acetamide] |
